The values that follow are results of earlier work, collected in patent US8853187B2, “Composition comprising bisphosphonates for prevention and/or treatment of metabolic diseases of bones, process for preparing such composition and use thereof” (Gador S.A., priority 2001, dated 2014).

The conditions of this series: ranking within the group of bisphosphonates, in words.

`CN(C)CCC(O)(P(=O)(O)O)P(=O)(O)O` [Olpadronate]: the “solubility relative to other bisphosphonates” value is recorded as “most soluble”.
